Reference: publication PMC2362650, “Phase I and pharmacokinetic study of the topoisomerase II catalytic inhibitor fostriecin” (British Journal of Cancer, 1999)

How the values were obtained:
[1] = system: murine leukaemia P388; parameters: method as in Leopold et al, 1984; conditions: ref Leopold et al, 1984; cited from earlier work
[2] = system: solid tumour; assay: Tumour response in phase I patients; format: in vivo, human; conditions: 2-20 mg m-2 day-1, days 1-5 every 4 weeks; 10 patients with measurable disease
Text: Fostriecin (CI-920) is a topoisomerase (topo) II catalytic activity inhibitor (Boritzki et al, 1988) (Figure 1). This novel class of topo II-targeting drugs is considered of potential value for treatment of patients with tumours resistant to classic topo II poisons, including anthracyclines and podophyllotoxins (Cummings and Smyth, 1993). The nuclear enzyme topo II is essential for the regulation of DNA conformation (reviewed in Osheroff et al, 1991). Central in its action is the formation of a complex with DNA. Stabilization of this complex by topo II poisons induces DNA damage and cell death (Froelich-Ammon and Osheroff, 1995). Decreased complex formation due to decreased topo II levels is considered to be an important mechanism of tumour-resistance to topo II poisons (Beck and Danks, 1991). The topo II catalytic inhibitor fostriecin is expected to have increased activity against tumour cells with low topo II levels and this was confirmed in in vitro studies (De Jong et al, 1991). […] Drug pharmacokinetics was analysed with high performance liquid chromatography with UV-detection. […] A metabolite, most probably dephosphorylated fostriecin, was detected in plasma and urine. […]

[3] = system: murine leukaemia L1210; parameters: method as in Leopold et al, 1984; conditions: ref Leopold et al, 1984; cited from earlier work
[4] = parameters: method as in Clinical Brochure Fostriecin, 1991; conditions: mouse; 5-day schedule; ref Clinical Brochure Fostriecin, 1991; cited from earlier work
[5] = system: GLC4/VM20x; parameters: method as in Withoff et al, 1996; conditions: ref Withoff et al, 1996; cited from earlier work

In the case of `C[C@@](O)(/C=C/[C@H]1CC=CC(=O)O1)[C@@H](C[C@@H](O)\C=C/C=C\C=C\CO)OP(=O)(O)O` [fostriecin], the “activity against P388” value [1] is given as “active”, the tumour responses [2] is given as “No tumour responses” and the “activity against L1210” value [3] is given as “active”. For the same compound, the LD10 [4] was 120 mg m-2 day-1 and the “sensitivity of GLC4/VM20x relative to GLC4” value [5] was 1.7 times.
